Data: US11771778B2, “Using DREADD for neuronal modulation in treating neuronal diseases” (priority 2016, dated 2023)

How the values were obtained:
[1] = molecular target: T1, wild-type M3 muscarinic receptor (hM3) (Homo sapiens, UniProt P20309); details: human pulmonary artery smooth muscle cells (Armbruster et al., 2007); cited from earlier work
T1 construct: host or cells: human pulmonary artery smooth muscle cells

[2] = molecular target: T2, Gq DREADD (hM3D(Gq)) in the STN (Homo sapiens, UniProt P20309, A239G/Y149C); assay: Open field test, 6OHDA PD mice expressing Gq DREADD in STN; type: in vivo, C57 black mice; details: IP CNO 5 mg/kg
T2 construct: expressed in transfected cells; host or cells: neurons of C57 black mice (GPe or STN), transduced with an AAV8 vector under the hSyn promoter
T2 sequence (P20309 whole entry Y149C/A239G): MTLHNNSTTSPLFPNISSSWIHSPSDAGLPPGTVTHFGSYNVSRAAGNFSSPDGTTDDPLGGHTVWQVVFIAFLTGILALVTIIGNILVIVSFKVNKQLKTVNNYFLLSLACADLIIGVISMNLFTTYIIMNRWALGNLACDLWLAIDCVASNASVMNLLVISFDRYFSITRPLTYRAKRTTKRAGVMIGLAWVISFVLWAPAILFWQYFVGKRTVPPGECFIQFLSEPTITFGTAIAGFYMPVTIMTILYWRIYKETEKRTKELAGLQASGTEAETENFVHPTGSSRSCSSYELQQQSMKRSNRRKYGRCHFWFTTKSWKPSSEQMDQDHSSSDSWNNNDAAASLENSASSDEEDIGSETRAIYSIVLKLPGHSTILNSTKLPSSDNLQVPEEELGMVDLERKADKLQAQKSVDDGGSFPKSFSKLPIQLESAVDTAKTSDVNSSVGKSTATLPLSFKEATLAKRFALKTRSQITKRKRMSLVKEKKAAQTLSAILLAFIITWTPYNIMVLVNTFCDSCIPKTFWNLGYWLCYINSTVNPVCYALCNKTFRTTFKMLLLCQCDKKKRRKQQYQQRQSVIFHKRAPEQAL
Experimental: (§1) To monitor the motor impairment and the ability of the DREADD therapy to reverse these impairments the following behavioral tests are conducted. Open field test: to measure motor activity dysfunction. In this test the spontaneous movement of mice in a square arena are recorded and quantified. Rotarod test: Mice were placed on a rotating rod with rotation speed gradually increasing from 4 to 40 RPM using a preset acceleration program. The time mice fell from the rotating rod was measured, with 300 seconds being the maximal time measured on the rod.
(§2) Experiments were performed on 2-4 month old wild type C57 black mice. To induce experimental PD, 1 microliter of a solution containing 6 hydroxy dopamine (6-OHDA) (3 mg/1 ml) was injected into the medial forebrain bundle via a small craniotomy drilled in the skull. The mouse head was fixated in a stereotaxic frame, and the 6OHDA containing solution was injected using a glass pipette held by a micro-manipulator and a micro-injector.
(§3) To express DREADDs (either the inhibitory DREADD Gi or the excitatory DREADD Gq) viral vectors were injected (either AAV8-hSyn-hM3D(Gq)-mCherry or AAV8-hSyn-hM4D(Gi)-mCherry). The viral vectors were injected through a craniotomy with a glass pipette held by a micromanipulator and a micro-injector. During the injections the head was fixated in a stereotaxic frame for accurate injections. Mice were anesthetized throughout the procedure with isoflurane.
(§4) The viral vectors […] were injected into several targets in the basal ganglia loop including the STN (either Gi and Gq), the EP and SNr nuclei (Gi), GPe (Gq) and the ventral thalamus (Gq). The injections were usually unilateral at the side of the 6OHDA injections. However, in cases of bilateral 6OHDA injections viral vectors were injected to the target nuclei bilaterally. Usually viral vectors and 6OHDA were injected at the same session.
(§5) To investigate the effect of DREADD activation, 500 μl of either IP CNO (5 mg/kg) or normal saline (NS-0.9% NaCl) was administered. Administration of either CNO or saline was performed in a blinded manner. […] Behavioral experiments were performed approximately 20-30 minutes after IP drug administration.
(§6) Two behavioral tests were used for monitoring the behavior of mice: (1) Open field test: Mice were placed in a 30 cm×30 cm×30 cm open top box for 5 minutes and continuous recorded on a video. The results were analyzed off-line after the experiments ended. Using the EthoVision software, the mean velocity and distance traveled by the mice were monitored during the 5 minutes of open field test. In addition, the number and direction of 180° turns were monitored with the EthoVision software. […] The time mice fell from the rotating rod was measured, with 300 seconds being the maximal time measured on the rod. […]

[3] = molecular target: T3, Gq DREADD (hM3D(Gq)) in the GPe nucleus (Homo sapiens, UniProt P20309, A239G/Y149C); assay: Rotarod test, 6OHDA PD mice expressing Gq DREADD in GPe; type: in vivo, C57 black mice
T3 construct: expressed in transfected cells; host or cells: neurons of C57 black mice (GPe or STN), transduced with an AAV8 vector under the hSyn promoter
T3 sequence (P20309 whole entry Y149C/A239G): as above
Experimental: as §1
(§7) Experiments were performed on 2-4 month old wild type C57 black mice. […]
as §6

[4] = molecular target: T4, Gi DREADD (hM4D(Gi)) in the STN (Homo sapiens, UniProt P08173, A203G/Y113C); assay: Rotarod test, 6OHDA PD mice expressing Gi DREADD in STN; type: in vivo, C57 black mice; details: blinded IP CNO
T4 construct: expressed in transfected cells; host or cells: neurons of C57 black mice (EP/SNr or STN), transduced with an AAV8 vector under the hSyn promoter
T4 sequence (P08173 1-479 Y113C/A203G): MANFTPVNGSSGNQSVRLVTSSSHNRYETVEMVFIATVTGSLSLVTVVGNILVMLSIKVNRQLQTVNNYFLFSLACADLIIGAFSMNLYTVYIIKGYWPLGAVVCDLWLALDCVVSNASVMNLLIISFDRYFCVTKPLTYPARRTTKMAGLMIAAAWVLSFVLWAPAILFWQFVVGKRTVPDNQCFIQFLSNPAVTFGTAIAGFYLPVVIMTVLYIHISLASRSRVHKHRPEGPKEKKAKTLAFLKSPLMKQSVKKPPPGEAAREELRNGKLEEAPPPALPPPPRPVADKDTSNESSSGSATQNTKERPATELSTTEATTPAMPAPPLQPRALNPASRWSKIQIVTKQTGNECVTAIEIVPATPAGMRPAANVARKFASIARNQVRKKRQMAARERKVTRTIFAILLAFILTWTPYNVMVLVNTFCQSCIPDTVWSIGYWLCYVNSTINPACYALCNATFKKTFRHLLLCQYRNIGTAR
Experimental: as §1, §7, §6

[5] = molecular target: T4, Gi DREADD (hM4D(Gi)) in the STN; assay: Open field test, 6OHDA PD mice expressing Gi DREADD in STN; type: in vivo, C57 black mice; details: blinded IP CNO
Experimental: as §1, §7, §6

hM3Dq receptor (hM3D) = molecular target: T5, hM3Dq receptor (hM3D) (Homo sapiens, UniProt P20309, A239G/Y149C); details: human pulmonary artery smooth muscle cells (Armbruster et al., 2007); cited from earlier work
T5 construct: host or cells: human pulmonary artery smooth muscle cells
T5 sequence (P20309 whole entry Y149C/A239G): as the sequence (P20309 whole entry Y149C/A239G) above

[6] = molecular target: T2, Gq DREADD (hM3D(Gq)) in the STN; assay: Rotarod test, 6OHDA PD mice expressing Gq DREADD in STN; type: in vivo, C57 black mice; details: IP CNO 5 mg/kg
Experimental: as §1, §7, §6

[7] = Rotarod test, mice without DREADD (normal control and 6OHDA hemi PD); type: in vivo, C57 black mice; details: normal control and 6OHDA hemi PD mice, no DREADD; IP CNO 5 mg/kg, blinded
Experimental: as §1, §7, §6

[8] = molecular target: T6, Gi DREADD (hM4D(Gi)) in the EP (GPi) and SNr nuclei (Homo sapiens, UniProt P08173, A203G/Y113C); assay: Open field test, 6OHDA PD mice expressing Gi DREADD in EP and SNr; type: in vivo, C57 black mice
T6 construct: expressed in transfected cells; host or cells: neurons of C57 black mice (EP/SNr or STN), transduced with an AAV8 vector under the hSyn promoter
T6 sequence (P08173 1-479 Y113C/A203G): T4 sequence (P08173 1-479 Y113C/A203G)
Experimental: as §1, §2, §3, §4, §5, §6

[9] = molecular target: T6, Gi DREADD (hM4D(Gi)) in the EP (GPi) and SNr nuclei; assay: Rotarod test, 6OHDA PD mice expressing Gi DREADD in EP and SNr; type: in vivo, C57 black mice
Experimental: as §1, §7, §6

[10] = molecular target: T3, Gq DREADD (hM3D(Gq)) in the GPe nucleus; assay: Open field test, 6OHDA PD mice expressing Gq DREADD in GPe; type: in vivo, C57 black mice
Experimental: as §1, §2, §3
as §4, with “session. […]” for “session.”
as §6
In this set of experiments, the GPe nucleus, which serves as a major relay nucleus exclusively belonging to the indirect pathway, was targeted. More specifically, the GPe neurons were activated using the excitatory Gq DREADDs, and the effect on behavior on 6-OHDA induced hemi-parkinsonian mice, was monitored.

[11] = Open field test, mice without DREADD (normal control and 6OHDA hemi PD); type: in vivo, C57 black mice; details: normal control and 6OHDA hemi PD mice, no DREADD, IP CNO 5 mg/kg, blinded
Experimental: as §1, §7, §6

[12] = 6OHDA hemi PD mice, unilateral Gq DREADD in STN
[13] = bilateral 6OHDA PD mice, bilateral Gq DREADD in STN
[14] = 6OHDA bilateral PD mice, Gq DREADD in both GPe nuclei, p<0.01
[15] = 6OHDA hemi PD mice, unilateral Gq DREADD in GPe, IP CNO 5 mg/kg
[16] = 6OHDA bilateral PD mice, bilateral Gi DREADD in both EP and SNr nuclei, p<0.01
[17] = 6OHDA hemi PD mice, unilateral Gi DREADD in EP and SNr, IP CNO 5 mg/kg

T1 sequence (P20309 whole entry): as the sequence (P20309 whole entry Y149C/A239G) above, with C149Y, G239A counted along it

CC(=O)OCC[N+](C)(C)C [ACh]
activation of wild-type M3 muscarinic receptor (hM3) [1]: potently activated

C[N+]1([O-])CCN(C2=Nc3cc(Cl)ccc3Nc3ccccc32)CC1 [CNO, clozapine-N-oxide]
increase in the mean velocity in the open field test compared to NS [2, 12]: 117.6±26.9%
reduction in the number of clockwise rotations compared to NS [2, 12]: 37.2±17%
reduction in the percent of clockwise rotations compared to NS [2, 12]: 47.6±11.1%
increase in the mean velocity in the open field test compared to NS [2, 13]: 294.4±70.9%
average time on the rotating rod in the rotarod test, CNO vs NS [3, 14]: beneficial effect
increase in the time spent on the rotating rod in the rotarod test compared to NS [3, 15]: 25.6±6.1%
performances in the rotarod test, CNO vs NS [4]: did not significantly affect
effect on turns, CNO vs NS [5]: small, yet significant beneficial effect
mean velocity in the open field test, CNO vs NS [5]: did not significantly affect
activation of hM3Dq receptor resulting in PIP2 hydrolysis (hM3Dq receptor (hM3D)): selectively activated
performances in the rotarod test, CNO vs NS [6, 12]: no significant differences
increase in the time before falling off the rotarod compared to NS [6, 13]: 81±15.8%
time to falling off the rotating rod, CNO vs NS [7]: no significant differences
mean velocity in motor activity test, CNO vs NS [8, 16]: beneficial effect
improvement in the mean velocity in the open field test compared to NS [8, 17]: 36±9%
reduction in the number of clockwise rotations compared to NS [8, 17]: 68.9±10.8%
reduction in the percent of clockwise rotations compared to NS [8, 17]: 46±8.6%
average time on the rotating rod in the rotarod test, CNO vs NS [9, 16]: beneficial effect
increase in the time spent on the rotating rod in the rotarod test compared to NS [9, 17]: 30.5±7.1%
activation of wild-type M3 muscarinic receptor (hM3) [1]: not by CNO
mean velocity in motor activity test, CNO vs NS [10, 14]: beneficial effect
increase in the mean velocity in the open field test compared to NS [10, 15]: 77.2±24.7%
reduction in the number of clockwise rotations compared to NS [10, 15]: 37.7±20%
reduction in the percent of clockwise rotations compared to NS [10, 15]: 40±7.8%
movement velocity in the open field test, CNO vs NS [11]: no significant differences
ipsilateral turning (number and percent of clockwise rotations), CNO vs NS ([11]; 5-minute open field): no significant differences
